According to ChEMBL document CHEMBL1201862, “PubChem BioAssay data set” (2004):
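Exposure lasted 48 hours, with cells grown in 96-well plates and compounds tested at five concentrations. Here, GI50 denotes the concentration required for 50% inhibition of growth.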 Calls of active or inactive are those of the source. Cut-off read from the data, not from the text of the source: active = GI50 up to about 1.1 µM and inactive = higher.

Assays:
Test in all cases: growth of human tumour cells (NCI), 48 h
SK-MEL-2 = system: SK-MEL-2
HOP-62 = system: HOP-62
KM12 = system: KM12
MDA-N = system: MDA-N
U-251 = system: U-251
K562 = system: K562
SF-295 = system: SF-295
MDA-MB-231 = system: MDA-MB-231
A549 = system: A549
Malme-3M = system: Malme-3M
A498 = system: A498
M14 = system: M14
SF-539 = system: SF-539
MDA-MB-435 = system: MDA-MB-435
SNB-19 = system: SNB-19
PC-3 = system: PC-3
OVCAR-5 = system: OVCAR-5
SN12C = system: SN12C
DU-145 = system: DU-145
HCT-116 = system: HCT-116
ACHN = system: ACHN
HCC 2998 = system: HCC 2998
SW-620 = system: SW-620
CAKI-1 = system: CAKI-1
NCI-H226 = system: NCI-H226
RXF 393 = system: RXF 393
T47D = system: T47D
NCI-H522 = system: NCI-H522
COLO 205 = system: COLO 205
786-0 = system: 786-0
NCI-H23 = system: NCI-H23
Hs-578T = system: Hs-578T
IGROV-1 = system: IGROV-1
EKVX = system: EKVX
SF-268 = system: SF-268
LOX IMVI = system: LOX IMVI
MOLT-4 = system: MOLT-4
SK-MEL-5 = system: SK-MEL-5
OVCAR-4 = system: OVCAR-4
OVCAR-3 = system: OVCAR-3
UO-31 = system: UO-31
UACC-257 = system: UACC-257
NCI-H460 = system: NCI-H460
NCI/ADR-RES = system: NCI/ADR-RES
SK-OV-3 = system: SK-OV-3
RPMI-8226 = system: RPMI-8226
HCT-15 = system: HCT-15
TK-10 = system: TK-10
SR = system: SR
OVCAR-8 = system: OVCAR-8
SK-MEL-28 = system: SK-MEL-28
CCRF-CEM = system: CCRF-CEM
HT-29 = system: HT-29
MCF7 = system: MCF7
HL-60 = system: HL-60
HOP-92 = system: HOP-92
SNB-75 = system: SNB-75

For `N#Cc1c(/C=C/c2ccccc2)c2c([nH]c1=S)CCCCC2`, the GI50 (SK-MEL-2) was > 100 µM (inactive), the GI50 (HOP-62) was > 100 µM (inactive) and the GI50 (KM12) was 75.5 µM (inactive). For the same compound, the GI50 (MDA-N) was > 100 µM (inactive), the GI50 (U-251) was 82.2 µM (inactive) and the GI50 (K562) was > 100 µM (inactive). The GI50 (SF-295) was > 100 µM (inactive), the GI50 (MDA-MB-231) was > 100 µM (inactive) and the GI50 (A549) was > 100 µM (inactive). The GI50 (Malme-3M) was > 100 µM (inactive), the GI50 (A498) was > 100 µM (inactive) and the GI50 (M14) was > 100 µM (inactive). The GI50 (SF-539) was > 100 µM (inactive), the GI50 (MDA-MB-435) was > 100 µM (inactive) and the GI50 (SNB-19) was > 100 µM (inactive). For the same compound, the GI50 (PC-3) was > 100 µM (inactive), the GI50 (OVCAR-5) was > 100 µM (inactive) and the GI50 (SN12C) was > 100 µM (inactive). The GI50 (DU-145) was > 100 µM (inactive), the GI50 (HCT-116) was > 100 µM (inactive) and the GI50 (ACHN) was > 100 µM (inactive). The GI50 (HCC 2998) was > 100 µM (inactive), the GI50 (SW-620) was > 100 µM (inactive) and the GI50 (CAKI-1) was > 100 µM (inactive). The GI50 (NCI-H226) was > 100 µM (inactive), the GI50 (RXF 393) was > 100 µM (inactive) and the GI50 (T47D) was > 100 µM (inactive). For the same compound, the GI50 (NCI-H522) was > 100 µM (inactive), the GI50 (COLO 205) was > 100 µM (inactive) and the GI50 (786-0) was > 100 µM (inactive). For the same compound, the GI50 (NCI-H23) was > 100 µM (inactive), the GI50 (Hs-578T) was > 100 µM (inactive) and the GI50 (IGROV-1) was > 100 µM (inactive). The GI50 (EKVX) was > 100 µM (inactive), the GI50 (SF-268) was > 100 µM (inactive) and the GI50 (LOX IMVI) was > 100 µM (inactive). The GI50 (MOLT-4) was > 100 µM (inactive), the GI50 (SK-MEL-5) was > 100 µM (inactive) and the GI50 (OVCAR-4) was > 100 µM (inactive). For the same compound, the GI50 (OVCAR-3) was > 100 µM (inactive), the GI50 (UO-31) was > 100 µM (inactive) and the GI50 (UACC-257) was > 100 µM (inactive). For the same compound, the GI50 (NCI-H460) was 4.9 µM (inactive), the GI50 (NCI/ADR-RES) was > 100 µM (inactive) and the GI50 (SK-OV-3) was > 100 µM (inactive). The GI50 (RPMI-8226) was > 100 µM (inactive), the GI50 (HCT-15) was over 100 µM and the GI50 (TK-10) was > 100 µM (inactive). For the same compound, the GI50 (SR) was 84.7 µM (inactive), the GI50 (OVCAR-8) was > 100 µM (inactive) and the GI50 (SK-MEL-28) was > 100 µM (inactive). The GI50 (CCRF-CEM) was > 100 µM (inactive), the GI50 (HT-29) was > 100 µM (inactive) and the GI50 (MCF7) was > 100 µM (inactive). The GI50 (HL-60) was > 100 µM (inactive), the GI50 (HOP-92) was > 100 µM (inactive) and the GI50 (SNB-75) was > 100 µM (inactive).
